Residues, ends and D or L forms follow the SMILES beside them. *: point of attachment. Cbz = O=C(OCc1ccccc1)*
Legend:
[1] = system: Mcl-1 levels in IM9, KMH2, Ramos, BL2 cells; test: Western blot of protein levels after MG-132 treatment; format: cell-based, human; conditions: all cell types, 10 μM, 5 h
Description: (§1) IM9, KMH2, BL2 and Ramos cells were plated (3×10^6 cells per well in a 6-well dish) and treated with 10 μM MG-132 for 5 hours. Equal amount of DMSO was added to the control samples. Cells were then lysed and subjected to SDS-PAGE/Western blot analyses.
(§2) In this example, in FIG. 26, it is shown that proteosomal degradation is not the cause of NMT2 depletion in BL cells. In these experiments, “Normal” immortalized B lymphocytes (IM9) and malignant B lymphoma cells [Hodgkin's lymphoma (KMH2) and BL (Ramos, BL2)] treated with 10 μM of proteosomal inhibitor (MG-132) for 5 h. Western blotting was performed on cell lysates to monitor levels of NMT1, NMT2, Mcl-1, and GAPDH.
(§3) To investigate whether NMT2's degradation was increased as a result of a destabilizing mutation or the presence of an unknown factor that could destabilize NMT2 in cancer cells, we treated normal and malignant lymphocytes with the proteosomal degradation inhibitor MG-132 for 5 h. Cell lysates were subjected to western blotting to analyze the presence of NMT1, NMT2 and myeloid cell leukemia-1 protein (Mcl-1), which was used as a control to check the effectiveness of MG-132 since it is subject to proteosomal degradation.

[2] = system: NMT2 levels in BL cells (Ramos, BL2); test: as above; format: cell-based, human; conditions: 10 μM, 5 h
Description: as §1, §2, §3

[3] = system: NMT1 levels in IM9, Ramos, BL2 cells; test: Western blot of protein levels after SAHA treatment; format: cell-based, human; conditions: 1 μM, 24 h
Description: (§4) IM9, BL2 and Ramos cells were plated at 3×10^6 cells per well in a 6-well dish and treated with 1 μM suberoylanilide hydroxamic acid (SAHA), which is a reversible inhibitor of class I and class II histone deacetylases (HDACs), for 24 hours. Equal amount of DMSO was added to cells as a control. Cells were lysed and subjected to SDS-PAGE/Western blot analyses.
(§5) To test whether the reduction in mRNA NMT2 was due to chromatin silencing, we treated “normal” B cells (IM9) and malignant BL cells with suberoylanilide hydroxamic acid (SAHA) (also named vorinostat), a class I and class II histone deacetylase inhibitor, for 24 hours and monitored the levels of NMT1 and NMT2 by western blot. In particular, “Normal” B cells (IM9) and malignant BL cells (Ramos, BL2) treated with 1 μM SAHA (HDAC class I/II inhibitor) for 24 h. Cells were then lysed, subjected to SDS-PAGE and western blotting was performed with NMT1, NMT2, p21/WAF1 and GAPDH antibodies.

[4] = system: NMT2 levels in BL cells (Ramos, BL2); test: as above; format: cell-based, human; conditions: 1 μM, 24 h
Description: as §4, §5

[5] = system: p21/WAF1 levels in IM9, Ramos, BL2 cells; test: as above; format: cell-based, human; conditions: all cells, 1 μM, 24 h
Description: as §4, §5

NMT2 = target: T1, NMT2 (Homo sapiens, UniProt O60551); test: In vitro NMT activity (peptide myristoylation) assay; format: biochemical
T1 construct: We generated His-tagged full-length (His-NMT1 and His-NMT2) and caspase truncated (His-73NMT1, His-26NMT2 and His-68NMT2) human NMT vectors; His6 (N); made in house; host or cells: E. coli Lemo21(DE3) pLysS
Text: (§6) In vitro NMT activity assay. N-myristoyltransferase activity assay protocol was adapted from Raju, R. V., and Sharma, R. K. (1999) Preparation and assay of myristoyl-CoA:protein N-myristoyltransferase. Methods Mol Biol 116, 193-211. [^3H] myristoyl-CoA was freshly synthesized for each experiment, as previously described by Towler, D., and Glaser, L. (1986) Protein fatty acid acylation: enzymatic synthesis of an N-myristoylglycyl peptide. Proc Nat Acad Sci USA 83, 2812-2816. Briefly, cells were resuspended in 0.25 M sucrose buffer (50 mM NaH2PO4, pH 7.4) and subjected to 2 rounds of sonication at level 6.0 on a Branson Sonicator. Reaction mixture is composed of 10 μL of cell extract (about 20 μg of proteins) incubated in NMT activity buffer (0.26M Tris-HCl, 3.25 mM EGTA, 2.92 mM EDTA and 29.25 mM 2-mercaptoethanol, 1% Triton X-100, pH 7.4) and myristoylable or non-myristoylable decapeptide corresponding to the N-terminal sequence of truncated-Bid (0.1 mM dissolved in water). Reaction was started by the addition of 7.4 μL (≈10 pMol) of freshly synthesized [^3H] myristoyl-CoA (final mixture volume=25 μL) and incubated for 15 min at 30° C. The reaction is stopped by spotting 15 μL of the reaction mixture on a P81 phosphocellulose paper disc (Whatman, Kent, UK) and dried for 30 seconds. Discs were washed (washing buffer: 25 mM Tris buffer, pH 7.4) to remove the residual radioactivity ([^3H]-myristate and [^3H]-myristoyl-CoA) while [^3H]-myristoyl-peptide is retained on the phosphocellulose paper. Radioactivity was quantified by liquid scintillation counting and converted into pMol of myristoylated peptide (Raju, R. V., and Sharma, R. K. (1999) Preparation and assay of myristoyl-CoA:protein N-myristoyltransferase. Methods Mol Biol 116, 193-211
(§7) NMT activity was assayed using a peptide myristoylation assay with purified recombinant NMT1 and NMT2. NMT activity was calculated from the amount of radiolabeled myristoylpeptide produced and detected on phosphocellulose paper (adapted from King et al. 1991, Anal Biochem.).
(§8) In this example, in FIG. 10, the sensitivity of various immortalized normal LO B lymphocytes (obtained from Dr. Riabowol, U. of Calgary), malignant B lymphoma cells (Ramos and BL2), and, T cell leukemia (CEM) is shown to the NMT inhibitor TrisDBA for 24 hours (A) Residual viability of various cell lines treated with TrisDBA for 24 hours (n=9) (B) Effect of TrisDBA on N-myristoyltransferase activity in COS7 cells transiently expressing NMT1 or NMT2 incubated for 24 h with TrisDBA. In vitro the IC50 for TrisDBA is approximately 2 μM for NMT1 and 5 μM for NMT2.

NMT1 = target: T2, NMT1 (Homo sapiens, UniProt P30419); test: as above; format: biochemical
T2 construct: We generated His-tagged full-length (His-NMT1 and His-NMT2) and caspase truncated (His-73NMT1, His-26NMT2 and His-68NMT2) human NMT vectors; His6 (N); made in house; host or cells: E. coli Lemo21(DE3) pLysS
Text: as §6, §7, §8

[6] = system: Ramos B lymphoma cells transfected with pcDNA3.1-V5-NMT2; test: Survival of NMT2-transfected Ramos cells, trypan blue exclusion; format: cell-based, human; conditions: TrisDBA 5 ug/ml, 24 hours
Description: (§9) Cell viability assay. B and T cell viability was measured using the trypan blue exclusion method. Cells were grown in confluency conditions (2×10^6 cells/mL maximum) assuring the minimum basal apoptosis. […] Cell viability was quantified using the TC10™ automated cell counter (Biorad).

[7] = system: BL-2 (Burkitt's lymphoma) cells; test: Trypan blue exclusion cell viability assay; format: cell-based, human; conditions: BL-2, 24 hours, compared with L0 and CEM cells
Description: as §9
(§10) The drugs were dissolved in DMSO to make 100× stock solutions for each concentration tested, so that the final volume of DMSO in each well was 1%.
(§11) Cell viability was then quantified using the TC10™ automated cell counter (Biorad).

[8] = system: Ramos (Burkitt's lymphoma) cells; test: Trypan blue exclusion cell viability assay; format: cell-based, human; conditions: 24 hours, compared with L0 and CEM cells
Description: as §9, §10, §11

T2 sequence (P30419 whole entry, the tested form may be a part): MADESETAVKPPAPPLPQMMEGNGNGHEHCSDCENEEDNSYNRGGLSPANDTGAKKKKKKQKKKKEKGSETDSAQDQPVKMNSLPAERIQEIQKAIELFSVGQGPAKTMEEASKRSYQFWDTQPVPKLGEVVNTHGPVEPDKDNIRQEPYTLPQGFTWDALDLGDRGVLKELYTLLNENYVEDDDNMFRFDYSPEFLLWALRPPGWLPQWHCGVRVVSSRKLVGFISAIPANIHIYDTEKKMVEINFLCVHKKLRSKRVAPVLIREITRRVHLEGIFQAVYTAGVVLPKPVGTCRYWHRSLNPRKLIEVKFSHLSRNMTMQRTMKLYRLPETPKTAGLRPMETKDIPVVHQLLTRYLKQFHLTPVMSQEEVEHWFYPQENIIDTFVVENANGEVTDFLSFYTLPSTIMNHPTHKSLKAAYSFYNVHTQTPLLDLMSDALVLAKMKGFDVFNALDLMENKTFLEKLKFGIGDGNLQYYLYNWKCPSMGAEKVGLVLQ
T1 sequence (O60551 whole entry, the tested form may be a part): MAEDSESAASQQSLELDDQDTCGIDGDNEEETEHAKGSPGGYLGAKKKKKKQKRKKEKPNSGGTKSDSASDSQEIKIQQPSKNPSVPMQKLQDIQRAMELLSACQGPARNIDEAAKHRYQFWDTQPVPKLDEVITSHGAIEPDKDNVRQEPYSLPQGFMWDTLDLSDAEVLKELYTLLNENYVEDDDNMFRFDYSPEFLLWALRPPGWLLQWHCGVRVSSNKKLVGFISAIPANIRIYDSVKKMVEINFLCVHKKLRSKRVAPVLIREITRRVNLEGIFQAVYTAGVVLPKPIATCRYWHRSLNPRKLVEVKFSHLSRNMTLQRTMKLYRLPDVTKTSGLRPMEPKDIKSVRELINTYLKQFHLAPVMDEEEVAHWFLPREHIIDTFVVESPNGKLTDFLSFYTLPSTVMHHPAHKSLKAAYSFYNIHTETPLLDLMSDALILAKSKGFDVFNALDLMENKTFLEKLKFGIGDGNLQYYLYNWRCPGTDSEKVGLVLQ

## CC(C)C[C@@H](C=O)NC(=O)[C@H](CC(C)C)NC(=O)[C@H](CC(C)C)NC(=O)OCc1ccccc1 [MG-132] (Cbz-Leu-Leu-Leu-aldehyde)
[1]
  Mcl-1 levels: increased levels of Mcl-1
[2]
  NMT2 levels: did not increase

## O=C(CCCCCCC(=O)Nc1ccccc1)NO [SAHA, suberoylanilide hydroxamic acid]
[3]
  NMT1 levels: remained relatively unchanged
[4]
  NMT2 levels: increased NMT2 levels
[5]
  p21/WAF1 levels: increased p21/WAF1 levels

## tris-dibenzylideneacetone-dipalladium [TrisDBA]
NMT2; NMT2, in vitro
  IC50: ~5 µM
NMT2; purified recombinant NMT2
  inhibition of NMT activity: inhibits NMT in vitro
NMT1; NMT1, in vitro
  IC50: ~2 µM
NMT1; purified recombinant NMT1
  inhibition of NMT activity: inhibits NMT in vitro
[6]
  increase of survival by NMT2 transfection vs control cells transfected with empty plasmid vector: 2.5 fold
[7]
  sensitivity (residual viability): more sensitive
[8]
  sensitivity (residual viability): more sensitive
